# pIC50: −log10 of the molar value. Like-named read-outs stand apart in the source and are kept apart here.
# What was measured:
# [1] = target: T1, α4β1 integrin receptor (Homo sapiens, UniProt P05556+P13612); assay: Ramos Cell Adhesion Assay (α4β1 Mediated Adhesion/VCAM-1); assay type: cell-based; conditions: for IC50: μM
# T1 construct: Ramos Cell Adhesion Assay (α4β1 Mediated Adhesion/VCAM-1); endogenous in cells; host or cells: Ramos cells
# Outline: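 Plates coated overnight at 4° C with recombinant hVCAM-1 (4.0 μg/mL, pH 9.0), then blocked with PBS/1% BSA. Ramos cells labelled with 5 μM Calcein AM adhered 1 h at room temperature with compound; after washing, cells were lysed in SDS and fluorescence read at 485/530 nm.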
# [2] = target: T2, human α4β7 (Homo sapiens, UniProt P13612+P26010); assay: α4β7-K562 Cell Adhesion Assay (α4β7 Mediated Adhesion/VCAM-1); assay type: cell-based; conditions: for IC50: μM
# T2 construct: expressed in transfected cells
# T2 sequence (P13612 34-1032): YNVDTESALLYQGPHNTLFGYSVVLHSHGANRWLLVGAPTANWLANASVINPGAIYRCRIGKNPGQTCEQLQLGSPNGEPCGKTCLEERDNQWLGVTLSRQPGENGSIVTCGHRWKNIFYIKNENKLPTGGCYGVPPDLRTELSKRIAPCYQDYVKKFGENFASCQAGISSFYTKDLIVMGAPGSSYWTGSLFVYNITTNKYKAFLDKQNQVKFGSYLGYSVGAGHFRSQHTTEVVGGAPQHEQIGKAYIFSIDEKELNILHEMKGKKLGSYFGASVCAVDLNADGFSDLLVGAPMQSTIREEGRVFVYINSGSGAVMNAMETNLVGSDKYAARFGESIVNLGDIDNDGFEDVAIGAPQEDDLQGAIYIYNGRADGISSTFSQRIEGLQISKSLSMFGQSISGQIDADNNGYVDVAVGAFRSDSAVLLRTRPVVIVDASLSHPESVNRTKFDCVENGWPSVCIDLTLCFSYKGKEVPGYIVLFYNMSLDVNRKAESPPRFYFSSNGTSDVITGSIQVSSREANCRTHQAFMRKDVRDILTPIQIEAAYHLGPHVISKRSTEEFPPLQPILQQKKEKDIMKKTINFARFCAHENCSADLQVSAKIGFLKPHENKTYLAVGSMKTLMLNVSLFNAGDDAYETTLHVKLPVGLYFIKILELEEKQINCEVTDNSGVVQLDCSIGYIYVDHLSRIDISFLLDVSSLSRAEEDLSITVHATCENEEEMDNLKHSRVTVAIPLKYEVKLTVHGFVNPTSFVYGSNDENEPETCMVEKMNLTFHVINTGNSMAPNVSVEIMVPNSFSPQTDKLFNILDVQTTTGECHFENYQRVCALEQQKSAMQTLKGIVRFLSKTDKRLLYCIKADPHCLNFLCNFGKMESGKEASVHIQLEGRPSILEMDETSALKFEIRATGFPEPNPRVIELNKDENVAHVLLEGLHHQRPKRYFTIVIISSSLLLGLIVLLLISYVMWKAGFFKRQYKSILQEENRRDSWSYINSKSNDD
# T2 sequence (P26010 20-798): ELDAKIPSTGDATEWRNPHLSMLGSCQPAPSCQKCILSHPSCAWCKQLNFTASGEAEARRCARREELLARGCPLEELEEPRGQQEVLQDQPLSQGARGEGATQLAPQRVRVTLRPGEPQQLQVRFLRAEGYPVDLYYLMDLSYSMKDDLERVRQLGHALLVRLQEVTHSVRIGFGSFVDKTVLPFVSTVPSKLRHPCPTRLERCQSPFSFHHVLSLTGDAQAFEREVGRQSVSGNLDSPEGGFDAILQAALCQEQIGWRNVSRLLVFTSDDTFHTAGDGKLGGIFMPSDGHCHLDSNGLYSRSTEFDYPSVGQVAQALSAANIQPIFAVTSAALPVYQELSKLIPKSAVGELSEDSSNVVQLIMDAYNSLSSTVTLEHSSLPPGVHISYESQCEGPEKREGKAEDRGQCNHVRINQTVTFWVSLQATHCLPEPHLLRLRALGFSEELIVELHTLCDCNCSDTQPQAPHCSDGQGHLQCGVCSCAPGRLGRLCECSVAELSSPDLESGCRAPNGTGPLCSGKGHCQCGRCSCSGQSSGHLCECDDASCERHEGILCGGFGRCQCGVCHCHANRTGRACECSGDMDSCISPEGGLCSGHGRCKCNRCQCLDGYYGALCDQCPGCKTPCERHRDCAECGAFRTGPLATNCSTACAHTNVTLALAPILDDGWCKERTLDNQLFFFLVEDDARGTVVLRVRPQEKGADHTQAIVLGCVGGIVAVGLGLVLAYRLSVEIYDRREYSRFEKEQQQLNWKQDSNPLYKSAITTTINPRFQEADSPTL
# Outline: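 K562 cells stably expressing human α4β7, labelled with 5 μM Calcein AM, adhered for 1 h at room temperature to plates coated with recombinant hVCAM-1 (4.0 μg/mL) in the presence of compound. After washing, cells were lysed in Tris/SDS. Bound cells were read by fluorescence at 485/530 nm.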
# [3] = Table III, read-out: Inhibition of Binding of Ramos Cells to Immobilized VCAM-1 IC50
# [4] = Table IV, read-out: Inhibition of Binding of K562 Cells to Immobilized VCAM-1 IC50
# [5] = Table I, racemic mixtures and resolved (S,S) and (R,S) diastereomers, read-out: Antagonist IC50 Activity α4β1
# [6] = Table I, racemic mixtures and resolved (S,S) and (R,S) diastereomers, read-out: Antagonist IC50 Activity α4β7
# T1 sequence (P05556 21-798, one chain of several): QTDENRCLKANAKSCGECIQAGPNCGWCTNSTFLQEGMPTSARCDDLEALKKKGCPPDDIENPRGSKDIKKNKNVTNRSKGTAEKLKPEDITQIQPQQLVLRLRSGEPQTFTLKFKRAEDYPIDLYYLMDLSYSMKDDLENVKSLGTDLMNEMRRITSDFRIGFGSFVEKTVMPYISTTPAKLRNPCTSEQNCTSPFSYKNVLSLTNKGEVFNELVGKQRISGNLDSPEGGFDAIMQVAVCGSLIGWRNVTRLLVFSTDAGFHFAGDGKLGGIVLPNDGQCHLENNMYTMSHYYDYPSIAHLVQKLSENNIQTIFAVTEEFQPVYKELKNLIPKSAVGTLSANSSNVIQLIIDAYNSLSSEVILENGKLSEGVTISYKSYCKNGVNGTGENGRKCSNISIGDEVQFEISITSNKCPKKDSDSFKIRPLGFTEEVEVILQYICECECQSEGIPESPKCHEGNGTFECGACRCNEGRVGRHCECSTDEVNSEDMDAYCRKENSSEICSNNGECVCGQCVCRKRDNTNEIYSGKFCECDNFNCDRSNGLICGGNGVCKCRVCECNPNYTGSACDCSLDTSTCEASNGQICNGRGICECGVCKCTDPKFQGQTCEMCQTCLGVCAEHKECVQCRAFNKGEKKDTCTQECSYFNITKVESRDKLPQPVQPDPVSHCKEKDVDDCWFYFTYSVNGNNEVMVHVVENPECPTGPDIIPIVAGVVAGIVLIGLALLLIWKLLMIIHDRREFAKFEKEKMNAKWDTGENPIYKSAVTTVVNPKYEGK
Structure (SMILES),"pIC50 [1, 3]","IC50 [2, 4]","pIC50 [2, 4]","pIC50 [1, 5]","pIC50 [2, 6]","IC50 [1, 3]"
"Cc1ccc(S(=O)(=O)N2C3CCC(CC3)C2C(=O)N[C@@H](Cc2ccc(NC(=O)Cc3c(Cl)cccc3Cl)cc2)C(=O)O)cc1 (stereo partly drawn) [Cpd 27, 4-[[(2,6-dichlorophenyl)acetyl]amino]-N-[[2-[(4-methylphenyl)sulfonyl]-2-azabicyclo[2.2.2]oct-3-yl]carbonyl]-L-phenylalanine]",5.96,> 10 µM,,,,
"COc1ccc(OC)c(C(=O)c2ccc(C(=O)Nc3ccc(C[C@H](NC(=O)C4C5CCC(CC5)N4S(=O)(=O)c4ccc(C)cc4)C(=O)O)cc3)cc2)c1 (stereo partly drawn) [Cpd 26, 4-[[4-(2,5-dimethoxybenzoyl)benzoyl]amino]-N-[[2-[(4-methylphenyl)sulfonyl]-2-azabicyclo[2.2.2]oct-3-yl]carbonyl]-L-phenylalanine]",6.17,> 10 µM,,,,
O=C(O)C(Cc1ccc(OCc2c(Cl)cccc2Cl)c(F)c1)NC(=O)C1C2CCC(CC2)N1S(=O)(=O)c1ccccc1 (centres unmarked) [Cpd 62],,> 10 µM,,,,> 5 µM
"Cc1ccc(S(=O)(=O)N2C3CCC(CC3)C2C(=O)N[C@@H](Cc2ccc(NC(=O)c3c(C(C)C)cc(C(C)C)cc3C(C)C)cc2)C(=O)O)cc1 (stereo partly drawn) [Cpd 31, 4-[[2,4,6-tris(1-methylethyl)benzoyl]amino]-N-[[2-[(4-methylphenyl)sulfonyl]-2-azabicyclo[2.2.2]oct-3-yl]carbonyl]-L-phenylalanine]",,> 10 µM,,,,> 5 µM
"O=C(O)[C@H](Cc1ccc(NC(=O)[C@@H]2C3CCC(CC3)N2S(=O)(=O)c2ccccc2)cc1)NC(=O)[C@@H]1C2CCC(CC2)N1S(=O)(=O)c1ccccc1 [Cpd 70, 4-[[[(3S)-2-(phenylsulfonyl)-2-azabicyclo[2.2.2]oct-3-yl]carbonyl]amino]-N-[[(3S)-2-(phenylsulfonyl)-2-azabicyclo[2.2.2]oct-3-yl]carbonyl]-L-phenylalanine]",6.43,,5.69,,,
"O=C(Nc1ccc(C[C@H](NC(=O)[C@H]2C3CCC(CC3)N2S(=O)(=O)c2ccccc2)C(=O)O)cc1)c1c(Cl)cccc1Cl [Cpd 6b, 4-[(2,6-dichlorobenzoyl)amino]-N-[[(3R)-2-(phenylsulfonyl)-2-azabicyclo[2.2.2]oct-3-yl]carbonyl]-L-phenylalanine]",6.65,,,6.65,6.38,
"COc1cccc(OC)c1C(=O)Nc1ccc(C[C@H](NC(=O)C2C3CCC(CC3)N2S(=O)(=O)c2ccc(F)cc2)C(=O)O)cc1 (stereo partly drawn) [Cpd 55, 4-[(2,6-dimethoxybenzoyl)amino]-N-[[2-[(4-fluorophenyl)sulfonyl]-2-azabicyclo[2.2.2]oct-3-yl]carbonyl]-L-phenylalanine]",6.52,,7.04,,,
"O=C(Nc1ccc(C[C@H](NC(=O)[C@@H]2C3CCC(CC3)N2S(=O)(=O)c2ccccc2)C(=O)O)cc1)C1CC1 [Cpd 67, 4-[(cyclopropylcarbonyl)amino]-N-[[(3S)-2-(phenylsulfonyl)-2-azabicyclo[2.2.2]oct-3-yl]carbonyl]-L-phenylalanine]",6.20,,6.17,,,
"Cc1ccc(S(=O)(=O)N2C3CCC(CC3)C2C(=O)N[C@@H](Cc2cccc(NC(=O)c3c(F)cccc3F)c2)C(=O)O)cc1 (stereo partly drawn) [Cpd 35, 3-[(2,6-difluorobenzoyl)amino]-N-[[2-[(4-methylphenyl)sulfonyl]-2-azabicyclo[2.2.2]oct-3-yl]carbonyl]-L-phenylalanine]",,> 10 µM,,,,> 5 µM

# The remaining lines, values ahead:
"pIC50 [1, 3]","IC50 [2, 4]","pIC50 [2, 4]","pIC50 [1, 5]","pIC50 [2, 6]","IC50 [1, 3]",Structure (SMILES)
6.28,> 10 µM,,,,,"CC(C)(C)c1ccc(C[C@H](NC(=O)C2C3CCC(CC3)N2S(=O)(=O)c2ccccc2)C(=O)O)cc1 (stereo partly drawn) [Cpd 58, 4-(1,1-dimethylethyl)-N-[[2-(phenylsulfonyl)-2-azabicyclo[2.2.2]oct-3-yl]carbonyl]-L-phenylalanine]"
6.84,,6.93,,,,"O=C(Nc1ccc(C[C@H](NC(=O)C2C3CCC(CC3)N2S(=O)(=O)c2ccc(F)cc2)C(=O)O)cc1)c1c(Cl)cccc1Cl (stereo partly drawn) [Cpd 54, 4-[(2,6-dichlorobenzoyl)amino]-N-[[2-[(4-fluorophenyl)sulfonyl]-2-azabicyclo[2.2.2]oct-3-yl]carbonyl]-L-phenylalanine]"
7.17,,,6.75,6.06,,"CC(C)(C)OC(=O)N1CCC(C(=O)Nc2ccc(C[C@H](NC(=O)C3C4CCC(CC4)N3S(=O)(=O)c3ccccc3)C(=O)O)cc2)CC1 (mixture of isomers) [Cpd 53, 4-[[[1-[(1,1-dimethylethoxy)carbonyl]-4-piperidinyl]carbonyl]amino]-N-[[2-(phenylsulfonyl)-2-azabicyclo[2.2.2]oct-3-yl]carbonyl]-L-phenylalanine]"
6.11,> 5 µM,,,,,"O=C(N[C@@H](Cc1ccc(NS(=O)(=O)c2c(Cl)cccc2Cl)cc1)C(=O)O)C1C2CCC(CC2)N1S(=O)(=O)c1ccccc1 (stereo partly drawn) [Cpd 51, 4-[[(2,6-dichlorophenyl)sulfonyl]amino]-N-[[2-(phenylsulfonyl)-2-azabicyclo[2.2.2]oct-3-yl]carbonyl]-L-phenylalanine]"
6.07,,,6.07,5.05,,"COc1cccc(OC)c1-c1ccc(C[C@H](NC(=O)[C@H]2C3CCC(CC3)N2S(=O)(=O)c2ccc(C)cc2)C(=O)O)cc1 [Cpd 18a, 4-(2,6-dimethoxyphenyl)-N-[[(3R)-2-[(4-methylphenyl)sulfonyl]-2-azabicyclo[2.2.2]oct-3-yl]carbonyl]-L-phenylalanine]"
7.77,,6.73,,,,"O=C(Nc1ccc(C[C@H](NC(=O)C2C3CCC(CC3)N2S(=O)(=O)c2cccs2)C(=O)O)cc1)c1c(Cl)cccc1Cl (stereo partly drawn) [Cpd 66, 4-[(2,6-dichlorobenzoyl)amino]-N-[[2-(2-thienylsulfonyl)-2-azabicyclo[2.2.2]oct-3-yl]carbonyl]-L-phenylalanine]"
,> 10 µM,,,,> 5 µM,"O=C(N[C@@H](CCc1ccccc1)C(=O)O)C1C2CCC(CC2)N1S(=O)(=O)c1ccccc1 (stereo partly drawn) [Cpd 46, α(S)-[[[2-(phenylsulfonyl)-2-azabicyclo[2.2.2]oct-3-yl]carbonyl]amino]-benzenebutanoic acid]"
6.40,,,6.40,5.47,,"O=C(Nc1ccc(C[C@H](NC(=O)[C@H]2C3CCC(C3)N2S(=O)(=O)c2ccccc2)C(=O)O)cc1)c1c(F)cccc1F (stereo partly drawn) [Cpd 5b, 4-[(2,6-difluorobenzoyl)amino]-N-[[(3R)-2-(phenylsulfonyl)-2-azabicyclo[2.2.1]hept-3-yl]carbonyl]-L-phenylalanine]"

# Reference: patent publication US6960597B2, “Aza-bridged-bicyclic amino acid derivatives as α4 integrin antagonists” (Orth-McNeil Pharmaceutical, Inc., priority 2000, dated 2005)
